Measurements from patent publication US20230017045A1, “PYRIDINE AND PYRIMIDINE CARBOXYLATE HERBICIDES AND METHODS OF USE THEREOF” (Dow AgroSciences LLC, priority 2017, published 2023).

The compounds below were run on test plant species (assay: Post-emergent herbicidal activity test (greenhouse, foliar spray, visual growth reduction)). Conditions: post-emergence, 336 h, ALOMY: blackgrass (Alopecurus myosuroides), 140 g ai/ha, 14 days after application, read-out: Visual Growth Reduction (%) 14 Days After Application, ALOMY.
Format: in vivo
Experimental: Post-emergent Test: Seeds or nutlets of the desired test plant species were planted in Sun Gro Metro-Mix® 360 planting mixture, which typically has a pH of 6.0 to 6.8 and an organic matter content of about 30 percent, in plastic pots with a surface area of 64 square centimeters. In some aspects, to ensure good germination and healthy plants, a fungicide treatment and/or other chemical or physical treatment was applied. The plants were grown for 7-21 d in a greenhouse with an approximate 15 h photoperiod which was maintained at 23-29° C. during the day and 22-28° C. during the night. Nutrients and water were added on a regular basis and supplemental lighting was provided with overhead metal halide 1000-Watt lamps as necessary. Plants were used for testing when they reached the first or second true leaf stage. A weighed amount, determined by the highest rate to be tested, of each test compound was placed in a 25 mL glass vial and was dissolved in 4 mL of a 97:3 v/v mixture of acetone and DMSO to obtain concentrated stock solutions. […] The concentrated stock solutions obtained were diluted with 20 mL of an aqueous mixture containing acetone, water, isopropyl alcohol, DMSO, […] crop oil concentrate, and X-77 surfactant in a 48.5:39:10:1.5:1.0:0.02 v/v ratio to obtain spray solutions containing the application rate. Compound requirements are based upon a 12 mL application volume at a rate of 187 liters per hectare (L/ha). Formulated compounds were applied to the plant material with an overhead Mandel track sprayer equipped with […] nozzles calibrated to deliver 187 L/ha over an application area of 0.64 square meters at a spray height of 18 inches (43 cm) above the average plant canopy height. Control plants were sprayed in the same manner with the solvent blank. The treated plants and control plants were placed in a greenhouse as described above and watered by subirrigation to prevent wash-off of the test compounds. After 14 d, the condition of the test plants as compared with that of the nontreated and control plants was determined visually and scored on a scale of 0 to 100 percent where 0 corresponds to no injury and 100 corresponds to complete control. In the reporting of the results, Table A: Percent Growth Reduction Conversion Table was used.
With `COC(=O)c1nc(-c2ccc(C(F)(F)F)cc2F)ccc1Cl` [F12, Methyl 3-chloro-6-(2-fluoro-4-(trifluoromethyl)phenyl)picolinate] the pest or weed control at 140 g/ha was 0 to 29%.
For `COC(=O)c1nc(-c2ccc(C(F)(F)F)cc2Cl)cc(OC)c1Cl` [F39, Methyl 3-chloro-6-(trifluoromethyl) phenyl)-4-methoxypicolinate], the pest or weed control at 140 g/ha was 0 to 29%.

Same assay, conditions: post-emergence, 336 h, AMARE: redroot pigweed (Amaranthus retroflexus), 140 g ai/ha, 14 days after application, read-out: Visual Growth Reduction (%) 14 Days After Application, AMARE
`COC(=O)c1nc(-c2ccc(C(F)(F)F)cc2F)ccc1Cl` [F12, Methyl 3-chloro-6-(2-fluoro-4-(trifluoromethyl)phenyl)picolinate] showed a pest or weed control at 140 g/ha of 85 to 94%.
In the case of `COC(=O)c1nc(-c2ccc(C(F)(F)F)cc2Cl)cc(OC)c1Cl` [F39, Methyl 3-chloro-6-(trifluoromethyl) phenyl)-4-methoxypicolinate], the pest or weed control at 140 g/ha is reported as 0 to 29%.

Same assay, conditions: post-emergence, 336 h, AVEFA: wild oat (Avena fatua), 140 g ai/ha, 14 days after application, read-out: Visual Growth Reduction (%) 14 Days After Application, AVEFA
Work on `COC(=O)c1nc(-c2ccc(C(F)(F)F)cc2F)ccc1Cl` [F12, Methyl 3-chloro-6-(2-fluoro-4-(trifluoromethyl)phenyl)picolinate] yielded a pest or weed control at 140 g/ha of 0 to 29%.
`COC(=O)c1nc(-c2ccc(C(F)(F)F)cc2Cl)cc(OC)c1Cl` [F39, Methyl 3-chloro-6-(trifluoromethyl) phenyl)-4-methoxypicolinate] showed a pest or weed control at 140 g/ha of 0 to 29%.

Same assay, conditions: post-emergence, 336 h, CHEAL: lambsquarters (Chenopodium album), 140 g ai/ha, 14 days after application, read-out: Visual Growth Reduction (%) 14 Days After Application, CHEAL
`COC(=O)c1nc(-c2ccc(C(F)(F)F)cc2F)ccc1Cl` [F12, Methyl 3-chloro-6-(2-fluoro-4-(trifluoromethyl)phenyl)picolinate] showed a pest or weed control at 140 g/ha of 95 to 100%.
`COC(=O)c1nc(-c2ccc(C(F)(F)F)cc2Cl)cc(OC)c1Cl` [F39, Methyl 3-chloro-6-(trifluoromethyl) phenyl)-4-methoxypicolinate] showed a pest or weed control at 140 g/ha of 0 to 29%.

Same assay, conditions: post-emergence, 336 h, CIRAR: canada thistle (Cirsium arvense), 140 g ai/ha, 14 days after application, read-out: Visual Growth Reduction (%) 14 Days After Application, CIRAR
Compound `COC(=O)c1nc(-c2ccc(C(F)(F)F)cc2F)ccc1Cl` [F12, Methyl 3-chloro-6-(2-fluoro-4-(trifluoromethyl)phenyl)picolinate] has a pest or weed control at 140 g/ha of 60 to 74%.
Work on `COC(=O)c1nc(-c2ccc(C(F)(F)F)cc2Cl)cc(OC)c1Cl` [F39, Methyl 3-chloro-6-(trifluoromethyl) phenyl)-4-methoxypicolinate] yielded a pest or weed control at 140 g/ha of 0 to 29%.

Same assay, conditions: post-emergence, 336 h, CYPES: yellow nutsedge (Cyperus esculentus), 140 g ai/ha, 14 days after application, read-out: Visual Growth Reduction (%) 14 Days After Application, CYPES
`COC(=O)c1nc(-c2ccc(C(F)(F)F)cc2F)ccc1Cl` [F12, Methyl 3-chloro-6-(2-fluoro-4-(trifluoromethyl)phenyl)picolinate] showed a pest or weed control at 140 g/ha of 60 to 74%.
With `COC(=O)c1nc(-c2ccc(C(F)(F)F)cc2Cl)cc(OC)c1Cl` [F39, Methyl 3-chloro-6-(trifluoromethyl) phenyl)-4-methoxypicolinate] the pest or weed control at 140 g/ha was 0 to 29%.

Same assay, conditions: post-emergence, 336 h, DIGSA: crabgrass (Digitaria sanguinalis), 140 g ai/ha, 14 days after application, read-out: Visual Growth Reduction (%) 14 Days After Application, DIGSA
With `COC(=O)c1nc(-c2ccc(C(F)(F)F)cc2F)ccc1Cl` [F12, Methyl 3-chloro-6-(2-fluoro-4-(trifluoromethyl)phenyl)picolinate] the pest or weed control at 140 g/ha was 75 to 84%.
In the case of `COC(=O)c1nc(-c2ccc(C(F)(F)F)cc2Cl)cc(OC)c1Cl` [F39, Methyl 3-chloro-6-(trifluoromethyl) phenyl)-4-methoxypicolinate], the pest or weed control at 140 g/ha is reported as 0 to 29%.

Same assay, conditions: post-emergence, 336 h, ECHCG: barnyardgrass (Echinochloa crus-galli), 140 g ai/ha, 14 days after application, read-out: Visual Growth Reduction (%) 14 Days After Application, ECHCG
In the case of `COC(=O)c1nc(-c2ccc(C(F)(F)F)cc2Cl)cc(OC)c1Cl` [F39, Methyl 3-chloro-6-(trifluoromethyl) phenyl)-4-methoxypicolinate], the pest or weed control at 140 g/ha is reported as 0 to 29%.

Same assay, conditions: post-emergence, 336 h, IPOHE: ivy-leaf morning glory (Ipomoea hederacea), 140 g ai/ha, 14 days after application, read-out: Visual Growth Reduction (%) 14 Days After Application, IPOHE
In the case of `COC(=O)c1nc(-c2ccc(C(F)(F)F)cc2Cl)cc(OC)c1Cl` [F39, Methyl 3-chloro-6-(trifluoromethyl) phenyl)-4-methoxypicolinate], the pest or weed control at 140 g/ha is reported as 0 to 29%.

Same assay, conditions: post-emergence, 336 h, KCHSC: kochia (Bassia scoparia), 140 g ai/ha, 14 days after application, read-out: Visual Growth Reduction (%) 14 Days After Application, KCHSC
`COC(=O)c1nc(-c2ccc(C(F)(F)F)cc2Cl)cc(OC)c1Cl` [F39, Methyl 3-chloro-6-(trifluoromethyl) phenyl)-4-methoxypicolinate] gave a pest or weed control at 140 g/ha of 0 to 29%.

Same assay, conditions: post-emergence, 336 h, ORYSA: rice (Oryza sativa), 140 g ai/ha, 14 days after application, read-out: Visual Growth Reduction (%) 14 Days After Application, ORYSA
In the case of `COC(=O)c1nc(-c2ccc(C(F)(F)F)cc2Cl)cc(OC)c1Cl` [F39, Methyl 3-chloro-6-(trifluoromethyl) phenyl)-4-methoxypicolinate], the pest or weed control at 140 g/ha is reported as 0 to 29%.

Same assay, conditions: post-emergence, 336 h, SETFA: giant foxtail (Setaria faberi), 140 g ai/ha, 14 days after application, read-out: Visual Growth Reduction (%) 14 Days After Application, SETFA
`COC(=O)c1nc(-c2ccc(C(F)(F)F)cc2Cl)cc(OC)c1Cl` [F39, Methyl 3-chloro-6-(trifluoromethyl) phenyl)-4-methoxypicolinate] gave a pest or weed control at 140 g/ha of 0 to 29%.

Same assay, conditions: post-emergence, 336 h, SORVU: grain sorghum (Sorghum vulgare), 140 g ai/ha, 14 days after application, read-out: Visual Growth Reduction (%) 14 Days After Application, SORVU
With `COC(=O)c1nc(-c2ccc(C(F)(F)F)cc2Cl)cc(OC)c1Cl` [F39, Methyl 3-chloro-6-(trifluoromethyl) phenyl)-4-methoxypicolinate] the pest or weed control at 140 g/ha was 30 to 44%.

Same assay, conditions: post-emergence, 336 h, STEME: common chickweed (Stellaria media), 140 g ai/ha, 14 days after application, read-out: Visual Growth Reduction (%) 14 Days After Application, STEME
`COC(=O)c1nc(-c2ccc(C(F)(F)F)cc2Cl)cc(OC)c1Cl` [F39, Methyl 3-chloro-6-(trifluoromethyl) phenyl)-4-methoxypicolinate] gave a pest or weed control at 140 g/ha of 0 to 29%.

Same assay, conditions: post-emergence, 336 h, TRZAS: wheat, spring (Triticum aestivum), 140 g ai/ha, 14 days after application, read-out: Visual Growth Reduction (%) 14 Days After Application, TRZAS
Compound `COC(=O)c1nc(-c2ccc(C(F)(F)F)cc2Cl)cc(OC)c1Cl` [F39, Methyl 3-chloro-6-(trifluoromethyl) phenyl)-4-methoxypicolinate] has a pest or weed control at 140 g/ha of 0 to 29%.

Same assay, conditions: post-emergence, 336 h, barnyardgrass (Echinochloa crus-galli), 14 Days After Application, 140 g ai/ha, read-out: Visual Growth Reduction (%) ECHCG
Work on `COC(=O)c1nc(-c2ccc(C(F)(F)F)cc2F)ccc1Cl` [F12, Methyl 3-chloro-6-(2-fluoro-4-(trifluoromethyl)phenyl)picolinate] yielded a pest or weed control at 140 g/ha of 0 to 29%.

Same assay, conditions: post-emergence, 336 h, common chickweed (Stellaria media), 14 Days After Application, 140 g ai/ha, read-out: Visual Growth Reduction (%) STEME
Work on `COC(=O)c1nc(-c2ccc(C(F)(F)F)cc2F)ccc1Cl` [F12, Methyl 3-chloro-6-(2-fluoro-4-(trifluoromethyl)phenyl)picolinate] yielded a pest or weed control at 140 g/ha of 0 to 29%.

Same assay, conditions: post-emergence, 336 h, giant foxtail (Setaria faberi), 14 Days After Application, 140 g ai/ha, read-out: Visual Growth Reduction (%) SETFA
Compound `COC(=O)c1nc(-c2ccc(C(F)(F)F)cc2F)ccc1Cl` [F12, Methyl 3-chloro-6-(2-fluoro-4-(trifluoromethyl)phenyl)picolinate] has a pest or weed control at 140 g/ha of 0 to 29%.

Same assay, conditions: post-emergence, 336 h, ivy-leaf morning glory (Ipomoea hederacea), 14 Days After Application, 140 g ai/ha, read-out: Visual Growth Reduction (%) IPOHE
`COC(=O)c1nc(-c2ccc(C(F)(F)F)cc2F)ccc1Cl` [F12, Methyl 3-chloro-6-(2-fluoro-4-(trifluoromethyl)phenyl)picolinate] was tested, and the pest or weed control at 140 g/ha was 95 to 100%.

Same assay, conditions: post-emergence, 336 h, johnsongrass (Sorghum vulgare), 14 Days After Application, 140 g ai/ha, read-out: Visual Growth Reduction (%) SORVU
`COC(=O)c1nc(-c2ccc(C(F)(F)F)cc2F)ccc1Cl` [F12, Methyl 3-chloro-6-(2-fluoro-4-(trifluoromethyl)phenyl)picolinate] was tested, and the pest or weed control at 140 g/ha was 75 to 84%.

Same assay, conditions: post-emergence, 336 h, kochia (Bassia scoparia), 14 Days After Application, 140 g ai/ha, read-out: Visual Growth Reduction (%) KCHSC
`COC(=O)c1nc(-c2ccc(C(F)(F)F)cc2F)ccc1Cl` [F12, Methyl 3-chloro-6-(2-fluoro-4-(trifluoromethyl)phenyl)picolinate] gave a pest or weed control at 140 g/ha of 0 to 29%.

Same assay, conditions: post-emergence, 336 h, rice (Oryza sativa), 14 Days After Application, 140 g ai/ha, read-out: Visual Growth Reduction (%) ORYSA
In the case of `COC(=O)c1nc(-c2ccc(C(F)(F)F)cc2F)ccc1Cl` [F12, Methyl 3-chloro-6-(2-fluoro-4-(trifluoromethyl)phenyl)picolinate], the pest or weed control at 140 g/ha is reported as 0 to 29%.

Same assay, conditions: post-emergence, 336 h, wheat, spring (Triticum aestivum), 14 Days After Application, 140 g ai/ha, read-out: Visual Growth Reduction (%) TRZAS
`COC(=O)c1nc(-c2ccc(C(F)(F)F)cc2F)ccc1Cl` [F12, Methyl 3-chloro-6-(2-fluoro-4-(trifluoromethyl)phenyl)picolinate] showed a pest or weed control at 140 g/ha of 0 to 29%.
